Assay results: patent publication US20150284331A1 (priority 2012, published 2015)

What was measured:
butyrylcholinesterase = molecular target: T1, butyrylcholinesterase (Rattus norvegicus, UniProt Q9JKC1); experiment: inhibition of butyrylcholinesterase (rat serum); assay type: biochemical; conditions: rat serum enzyme; final concentration 4×10−5 mol/L
T1 construct: Butyrylcholinesterase: rat serum; from tissue; host or cells: rat serum
Description: (§1) Sample processing: All samples were formulated as 10-2 mol/L solution by using 100% DMSO. 10-2 mol/L solution was used in microdetermination. 1 μL was taken to use in single tube experiment.
(§2) Solvent control: 0.4% DMSO was used in microdetermination. The inhibition ratio of the sample was obtained wherein the effect of solvent was deducted.
Butyrylcholinesterase: rat serum

acetylcholinesterase = molecular target: T2, acetylcholinesterase (Rattus norvegicus, UniProt P37136); experiment: biochemical; assay type: biochemical; conditions: rat cortex enzyme; for acetylcholinesterase inhibitory activity inhibition ratio (%): final concentration 4×10−5 mol/L; for IC50: read-out: acetylcholinesterase inhibitory activity IC50 (nmol)
T2 construct: Acetylcholinesterase: rat cortex; from tissue; host or cells: rat cortex
T2 sequence (P37136 32-614): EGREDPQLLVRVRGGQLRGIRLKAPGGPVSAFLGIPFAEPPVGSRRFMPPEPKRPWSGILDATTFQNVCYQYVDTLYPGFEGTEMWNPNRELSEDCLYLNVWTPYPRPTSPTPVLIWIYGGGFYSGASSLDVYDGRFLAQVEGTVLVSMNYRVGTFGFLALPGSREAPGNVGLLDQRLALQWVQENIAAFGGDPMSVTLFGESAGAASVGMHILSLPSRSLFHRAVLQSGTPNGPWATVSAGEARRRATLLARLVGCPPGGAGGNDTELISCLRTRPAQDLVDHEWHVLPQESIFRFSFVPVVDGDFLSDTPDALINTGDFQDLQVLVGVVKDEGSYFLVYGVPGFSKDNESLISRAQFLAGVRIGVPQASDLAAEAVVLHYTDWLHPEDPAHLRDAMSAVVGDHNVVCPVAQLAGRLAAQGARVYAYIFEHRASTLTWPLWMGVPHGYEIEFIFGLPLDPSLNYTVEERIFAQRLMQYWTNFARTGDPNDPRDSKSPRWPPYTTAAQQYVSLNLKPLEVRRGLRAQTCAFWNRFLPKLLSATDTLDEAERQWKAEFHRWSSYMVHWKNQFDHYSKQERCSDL
Description: as §1, §2
Acetylcholinesterase: rat cortex

T1 sequence (Q9JKC1 24-597): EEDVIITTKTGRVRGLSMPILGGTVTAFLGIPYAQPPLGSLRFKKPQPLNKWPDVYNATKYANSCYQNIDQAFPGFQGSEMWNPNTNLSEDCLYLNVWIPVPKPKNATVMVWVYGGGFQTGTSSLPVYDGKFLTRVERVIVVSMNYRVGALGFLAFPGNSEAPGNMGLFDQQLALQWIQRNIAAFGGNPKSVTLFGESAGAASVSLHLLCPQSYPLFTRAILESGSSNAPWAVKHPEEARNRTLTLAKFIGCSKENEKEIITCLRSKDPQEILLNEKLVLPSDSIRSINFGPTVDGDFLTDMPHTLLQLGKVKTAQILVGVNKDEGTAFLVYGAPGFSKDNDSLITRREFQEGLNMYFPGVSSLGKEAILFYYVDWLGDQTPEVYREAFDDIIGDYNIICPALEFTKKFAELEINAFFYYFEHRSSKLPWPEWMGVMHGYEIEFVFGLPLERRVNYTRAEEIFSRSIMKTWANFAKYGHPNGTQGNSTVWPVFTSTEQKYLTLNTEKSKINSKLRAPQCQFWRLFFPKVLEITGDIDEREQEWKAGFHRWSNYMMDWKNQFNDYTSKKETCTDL

| SMILES | butyrylcholinesterase inhibitory activity inhibition ratio (%) (butyrylcholinesterase) | acetylcholinesterase inhibitory activity inhibition ratio (%) (acetylcholinesterase) | IC50 (acetylcholinesterase) [nM] |
| --- | --- | --- | --- |
| COc1cc2c(cc1OC)C(=O)C(CC1(F)CCN(Cc3c(F)cccc3[N+](=O)[O-])CC1)C2 (stereo not drawn) [DC8, 2-((4-fluoro-1-(2-fluoro-6-nitrobenzyl)piperidin-4-yl)methyl)-5,6-dimethoxy-2,3-dihydro-1H-inden-1-one] | 49.48 | 76.05 | 27100 |
| COc1cc2c(cc1OC)C(=O)C(CC1(F)CCN(Cc3cccc(C(F)(F)F)c3)CC1)C2 (stereo not drawn) [DC30, 2-((4-fluoro-1-(3-(trifluoromethyl)benzyl)piperidin-4-yl)methyl)-5,6-dimethoxy-2,3-dihydro-1H-inden-1-one] | 5.18 | 97.49 | – |
| COc1cc2c(cc1OC)C(=O)C(CC1(F)CCN(Cc3ccccc3F)C(C)C1)C2 (stereo not drawn) [DC109, 2-((4-fluoro-1-(2-fluorobenzyl)-2-methylpiperidin-4-yl)methyl)-5,6-dimethoxy-2,3-dihydro-1H-inden-1-one] | 76.62 | 88.44 | 10.9 |
| COc1cc2c(cc1OC)C(=O)C(CC1(F)CCN(Cc3ccccc3C(F)(F)F)CC1)C2 (stereo not drawn) [DC18, 2-((4-fluoro-1-(2-(trifluoromethyl)benzyl)piperidin-4-yl)methyl)-5,6-dimethoxy-2,3-dihydro-1H-inden-1-one] | 14.99 | 93.80 | – |
| COc1cc2c(cc1OC)C(=O)C(CC1(F)CCN(CCc3ccccc3F)CC1)C2 (stereo not drawn) [DC111, 2-((4-fluoro-1-(2-fluorophenethyl)piperidin-4-yl)methyl)-5,6-dimethoxy-2,3-dihydro-1H-inden-1-one] | 71.58 | 92.44 | 1.96 |
| COc1cc2c(cc1OC)C(=O)C(CC1(F)CCN(Cc3cc(C(F)(F)F)cc(C(F)(F)F)c3)CC1)C2 (stereo not drawn) [DC22, 2-((1-(3,5-bis(trifluoromethyl)benzyl)-4-fluoropiperidin-4-yl)methyl)-5,6-dimethoxy-2,3-dihydro-1H-inden-1-one] | 4.36 | 58.49 | – |
| COc1cc2c(cc1OC)C(=O)C(CC1(F)CCN(Cc3cc(C)cc(C)c3)CC1)C2 (stereo not drawn) [DC4, 2-((1-(3,5-dimethylbenzyl)-4-fluoropiperidin-4-yl)methyl)-5,6-dimethoxy-2,3-dihydro-1H-inden-1-one] | 72.82 | 75.65 | – |
| COc1cc2c(cc1OC)C(=O)C(CC1(F)CCN(Cc3cccc(Br)c3)CC1)C2 (stereo not drawn) [DC11, 2-((1-(3-bromobenzyl)-4-fluoropiperidin-4-yl)methyl)-5,6-dimethoxy-2,3-dihydro-1H-inden-1-one] | 12.76 | 84.63 | 4.33 |
| COc1cc2c(cc1OC)C(=O)C(CC1(F)CCN(Cc3ccccc3Br)CC1)C2 (stereo not drawn) [DC14, 2-((1-(2-bromobenzyl)-4-fluoropiperidin-4-yl)methyl)-5,6-dimethoxy-2,3-dihydro-1H-inden-1-one] | 54.77 | 85.03 | 4 |
| COc1cc2c(cc1OC)C(=O)C(CC1(F)CC3CCC(C1)N3Cc1ccccc1[N+](=O)[O-])C2 (stereo not drawn) [DC52, 2-((3-fluoro-8-(2-nitrobenzyl)-8-azabicyclo[3.2.1]octan-3-yl)methyl)-5,6-dimethoxy-2,3-dihydro-1H-inden-1-one] | 0.73 | 93.80 | – |
| COc1cc2c(cc1OC)C(=O)C(CC1(F)CCN(Cc3ccc(Br)cc3F)CC1)C2 (stereo not drawn) [DC15, 2-((1-(4-bromo-2-fluorobenzyl)-4-fluoropiperidin-4-yl)methyl)-5,6-dimethoxy-2,3-dihydro-1H-inden-1-one] | 0.31 | 72.65 | 7040 |
| CCCOc1cc2c(cc1OCCC)C(=O)C(CC1(F)CCN(Cc3ccccc3F)CC1)C2 (stereo not drawn) [DC78, 2-((4-fluoro-1-(2-fluorobenzyl)piperidin-4-yl)methyl)-5,6-dipropoxy-2,3-dihydro-1H-inden-1-one] | 71.0 | 95.04 | 0.96 |
| COc1cc2c(cc1OC)C(=O)C(CC1(F)CCN(Cc3cc(F)cc(F)c3)CC1)C2 (stereo not drawn) [DC27, 2-((1-(3,5-difluorobenzyl)-4-fluoropiperidin-4-yl)methyl)-5,6-dimethoxy-2,3-dihydro-1H-inden-1-one] | 18.07 | 97.34 | – |
| COc1cc2c(cc1OC)C(=O)C(CC1(F)CCN(Cc3ccccc3F)C(C(=O)O)C1)C2 (stereo not drawn) [DC108, 4-((5,6-dimethoxy-1-oxo-2,3-dihydro-1H-inden-2-yl)methyl)-4-fluoro-1-(2-fluorobenzyl)piperidine-2-carboxylic acid] | 71.58 | 82.49 | 9.96 |
| CCOc1cc2c(cc1OCC)C(=O)C(CC1(F)CCN(Cc3ccccc3F)CC1)C2 (stereo not drawn) [DC77, 5,6-diethoxy-2-((4-fluoro-1-(2-fluorobenzyl)piperidin-4-yl)methyl)-2,3-dihydro-1H-inden-1-one] | 72.0 | 97.09 | 0.9 |
| COc1cc2c(cc1OC)C(=O)C(CC1(F)CCN(CC3CCC3)CC1)C2 (stereo not drawn) [DC31, 2-((1-(cyclobutylmethyl)-4-fluoropiperidin-4-yl)methyl)-5,6-dimethoxy-2,3-dihydro-1H-inden-1-one] | 35.06 | 85.82 | – |
| COc1cc2c(cc1OC)C(=O)C(CC1(F)CCN(CC3CCCC3)CC1)C2 (stereo not drawn) [DC32, 2-((1-(cyclopentylmethyl)-4-fluoropiperidin-4-yl)methyl)-5,6-dimethoxy-2,3-dihydro-1H-inden-1-one] | 46.68 | 90.10 | – |
| COc1cc2c(cc1OC)C(=O)C(CC1(F)CC3CCC(C1)N3Cc1ccc(C(C)(C)C)cc1)C2 (stereo not drawn) [DC47, 2-((8-(4-(tert-butyl)benzyl)-3-fluoro-8-azabicyclo[3.2.1]octan-3-yl)methyl)-5,6-dimethoxy-2,3-dihydro-1H-inden-1-one] | 7.63 | 75.33 | – |
